This is an account of results in patent US20120108538A1, “SULFATED POLYSACCHARIDES HAVING ANTIPLASMODIAL ACTIVITY AND METHODS AND PRODUCTS FOR IDENTIFYING ANTIPLASMODIAL ACTIVITY” (priority 2009, published 2012).

For assay [1], the system named is P. falciparum blood stage growth. As to the kind of experiment: Growth inhibition assay (GIA), flow cytometry. Type of assay: cell-based, Plasmodium falciparum. Particulars: for inhibition of different P. falciparum lines: 3D7, W2mef, D10, E8B, XIE, HCS3, SA-dependent and SA-independent invasion. The protocol: P. falciparum was cultured as described. Parasites were maintained in culture media of RPMI-HEPES supplemented with 5% (vol/vol) heat inactivated (56° C. 1 hr) human serum (Australian Red Cross Blood Bank),. […] (Gibco), 10mM L-glutamine (Gibco) and 25 mM […]. Parasites were grown at 37° C., 2% hematocrit, O+ human erythrocytes (Australian Red Cross Blood Bank), 1% O2 4% CO2 95% N2 atmosphere. Sorbitol (Sigma-Aldrich) was used to synchronize cultures. 32. Persson K E, Lee C T, Marsh K, Beeson J G (2006) Development and optimization of high-throughput methods to measure Plasmodium falciparum-specific growth inhibitory antibodies. J Clin Microbiol 44: 1665-1673.33. Lambros C, Vanderberg J P (1979) Synchronization of Plasmodium falciparum erythrocytic stages in culture. J Parasitol 65: 418-420.
Heparin and K5 polysaccharides (Table 1) were tested for inhibitory activity against P. falciparum parasites using high throughput growth inhibitory assays (GlAs). Duplicate 25 μl suspensions of synchronized parasites, 2% parasitemia (32 hr trophozoite), 1% hematocrit with normal or enzymatically treated erythrocyctes, were incubated with inhibitory compounds in 96 well sterile U-bottom plates (Falcon). For humidification, outside wells were filled with sterile human tonicity phosphate-buffered saline (HT-PBS). Plates were incubated as for parasite culture for 44 hrs and analyzed. Parasites were stained with 10 μg/mL ethidium bromide (EtBr) (BioRad), HT-PBS, 1 hr in darkness. Cells were washed and re-suspended in 200 μL HT-PBS. Parasitemia was measured using FACSCalibur flow-cytometry. Data were analyzed using FlowJo (Tree Star), gating on intact erythrocytes and determining parasitemia by EtBr staining. Inhibitory effects of compounds were expressed as percent growth of uninhibited controls (HT-PBS) for each experiment.
Erythrocytes were treated with neuraminidase, chymotrypsin and trypsin as described previously. Erythrocytes were washed with RPMI-HEPES and incubated with neuraminidase ([…], 15 minutes), chymotrypsin (1 mg/mL, 45 minutes) or trypsin (100 μg/mL, […]) at 37° C. Neuraminidase treated bells were washed three times with RPMI-HEPES and chymotrypsin and trypsin treated cells were washed once with culture media and twice with RPMI-HEPES and then used in GIAs. 34. Persson K E, McCallum F J, Reiling L, Lister N A, Stubbs J, et al. (2008) Variation in use of erythrocyte invasion pathways by Plasmodium falciparum mediates evasion of human inhibitory antibodies. J Clin Invest 118: 342-351.
(In general: Flow cytometry measures light scatter and fluorescence of single cells or particles in a stream.)

Assay [2] concerns P. falciparum merozoite invasion of erythrocytes. The experiment in a line: Live video microscopy of merozoite invasion. It is filed as cell-based, Plasmodium falciparum. The settings on record: 100 μg/mL; 4529 seconds filming, 15 rupture events. On the procedure: Parasites cultures of 5-10% late stage schizonts were filmed with video microscopy in normal culture media, 37° C. 6% CO2 with humidification with or without 100 μg/mL of inhibitory compounds added to cultures as described previously. 35. Gilson P R, Crabb B S (2009) Morphology and kinetics of the three distinct phases of red blood cell invasion by Plasmodium falciparum merozoites. Int J Parasitol 39: 91-96.
A mechanism of action of heparin was next determined using live time-lapse microscopy. In control parasite cultures, schizont rupture and step-wise invasion of erythrocytes by merozoites was readily observed (FIG. 7C). During merozoite invasion of erythrocytes, Applicant observed initial contact with erythrocyte surface resulting in brief deformation of erythrocytes, merozoite reorientation, mechanical invasion resulting in erythrocyte deformation, and erythrocyte re-shaping upon complete invasion, as reported previously. […] Initial contact of merozoites with the erythrocyte surface was also observed; however, contact between erythrocytes and merozoites was not sustained, and merozoites dissociated after various lengths of time (FIG. 7D). No successful invasion events were observed; additionally, reorientation of merozoites and deformation of erythrocytes were not clearly seen, although the observation of merozoite reorientation is limited due to microscope resolution. […]

Assay [3] relates to purified P. falciparum merozoites invading RBCs. The experiment in a line: Invasion inhibition assay (IIA) using purified merozoites. It is filed as cell-based, Plasmodium falciparum. On the procedure: Purified merozoites were mixed with uninfected RBCs and cultured using standard conditions in 96 well U-bottom plates at a final volume of 50 μl or 100 μl per well. Specific assay conditions were varied for different test conditions, as described in the Results section of the manuscript. Assays were typically performed under static conditions. Some assays were also performed with agitation of merozoite:RBC suspensions.
To test the activity of inhibitory compounds on invasion (Supporting Information Table 3), E64 treated schizonts were resuspended and filtered in culture medium without human serum. A typical merozoite invasion inhibition assay consisted of filtered merozoites (40 ul) added to RBC suspension (5 ul at […]; final concentration 1% hematocrit) and inhibitory compounds (5 ul at 10-times the final concentration required) in 96-well plates. Merozoite:RBCs suspensions containing inhibitors were incubated for one hour and then washed twice with culture medium to remove inhibitors, then resuspended in fresh culture media and incubated and analysed as for standard merozoite invasion assays. A number of compounds were also tested for inhibition of schizont rupture by incubating late stage schizonts (1-2% parasitaemia, 1% haematocrit in 50 ul) with a 1 in 10 dilution of compounds and monitoring the course of schizont rupture at 3 time points over an 8 hour period by flow cytometry.

The next assay has as its target MSP1-42 (Plasmodium falciparum, UniProt Q8I0U8). As to the kind of experiment: Heparin-BSA binding assay. Further details: a C-terminal 42kDa (MSP1-42) fragment; made in house; host or cells: E. coli; species or system P. falciparum. The settings on record: soluble inhibitor. The protocol:
Recombinant merozoite antigens were coated (1 μg/mL) onto 96 well plates (Nunc Maxisorb) in HT-PBS overnight at 4° C. Plates were washed and blocked with 1% casein, 1 hr, room temperature. Plates were incubated with heparin-BSA conjugate with soluble inhibitors and detected with anti-BSA (rabbit) (Sigma-Aldrich) antibodies and anti-rabbit -HRP. Detection was performed with 2,2′-azino-bis(3-ethylbenzthiazoline-6-sulphonic acid) (Sigma-Aldrich) monitored for colour change and measured for absorbance at 405 nm. All incubations were performed in HT-PBS 0.1% casein 0:05% Tween20, 1 hr at room temperature. Plates were washed 3 times HT-PBS 0.05% Tween20 between incubations.

“Also recorded” adds a separate entry of the source.

Chain of MSP1-42 (Q8I0U8 1327-1699): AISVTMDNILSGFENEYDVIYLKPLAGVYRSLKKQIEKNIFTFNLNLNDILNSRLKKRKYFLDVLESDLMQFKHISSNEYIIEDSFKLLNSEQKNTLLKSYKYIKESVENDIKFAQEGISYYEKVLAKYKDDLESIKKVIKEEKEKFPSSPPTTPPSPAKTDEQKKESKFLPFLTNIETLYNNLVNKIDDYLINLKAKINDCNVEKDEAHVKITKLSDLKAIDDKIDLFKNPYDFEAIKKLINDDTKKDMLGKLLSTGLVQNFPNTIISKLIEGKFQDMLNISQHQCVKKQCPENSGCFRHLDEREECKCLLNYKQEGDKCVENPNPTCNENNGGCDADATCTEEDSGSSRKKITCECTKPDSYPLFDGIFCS

Consider Heparin, for which the “inhibition of different P. falciparum lines” value in assay [1] is “inhibited to similar levels”; in assay [1] (listed as Heparin), “inhibited all parasite lines tested; also recorded: inhibited at equal levels”. Moreover, the “inhibition of invasion into enzyme-treated versus control erythrocytes” value in assay [1] (3D7, neuraminidase, trypsin, chymotrypsin treated erythrocytes) is listed as “equivalent”. Further, the “IC50, inhibition of P. falciparum blood stage growth in GIA” value in assay [1] (3D7 parasite line, one cycle of parasite growth) was 19 µg/mL. In addition, the “selection of heparin-resistant parasites” value in assay [1] (3D7 selected once or twice with heparin 100 μg/mL for 48 hrs) is on record as “no evidence that Applicant were able to select for increased resistance”. The “IC50 of heparin in combination with AMA1-binding peptide” value in assay [1] (AMA1-binding peptide at 6.25 μg/mL) was around 3 µg/mL. Moreover, in assay [1] (heparin 100 μg/mL), the “parasite growth over one cycle of replication” value was “a very low level of parasite growth”. The combination with pyrimethamine entry in assay [1] (heparin with increasing pyrimethamine) is listed as “acted in an additive manner”. The “successful invasion events observed” value in assay [2] is given as “no successful invasion observed”. In addition, in assay [3], the “inhibition of merozoite invasion in IIA” value is on record as “effectively inhibited merozoite invasion”. In addition, the “inhibition of heparin-BSA binding to recombinant MSP1-42” value at MSP1-42 is on record as “inhibited in a concentration-dependent manner”.
